A word on the amount remaining: it is what is left of the initial amount, in per cent.

Consider one molecule from PMC9065177, “Polymer chimera of stapled oncolytic peptide coupled with anti-PD-L1 peptide boosts immunotherapy of colorectal cancer” (Theranostics, 2022).

Data set [1] has as its system red blood cells (RBC). The data set is described as follows: Hemolysis assay (hemoglobin release from erythrocytes). The data set is classed as cell-based, mice. How it is done:
The hemolytic activities of the peptides and peptide-polymer conjugates were evaluated by determining hemoglobin release from suspensions of mice blood. Fresh erythrocytes were obtained from the whole blood by centrifuging at 4 ℃ 1000 g for 30 min and washing with PBS 2 times. Then erythrocytes were diluted with PBS at the volume ration of 1:10. The 96-well plate was added to 100 μL erythrocyte suspension per well and incubated with peptides and conjugates solution with different concentrations for 1 h at 37 ℃, following centrifuged at 1000 rpm for 10 min. The supernatants were obtained and monitored by measuring absorbance at 570 nm (BioTek Cytation 5, USA) as previously described. 0.1% (v/v) Triton X-100 was used as a positive control and PBS was used as a negative control.

Data set [2] is described as follows: Proteolytic stability in α-chymotrypsin solution. The format is in vitro ADME. The note with it: α-chymotrypsin solution, pH 7.4; after 1 h exposure to α-chymotrypsin; read-out: peptide remaining intact. How it is done: (§1) The peptides were dissolved in H2O to a final concentration at 2 mM, respectively. α-Chymotrypsin was dissolved in PBS (0.5 ng/μL, containing 2 mM CaCl2, pH 7.4). Then, the peptide solutions (50 μL) were incubated with α-chymotrypsin solution (950 μL) at 37 ℃. 100 μL of digestion mixture was taken at the different time and then quenched with 20 μL of hydrochloric acid (1 M). The percent residual peptide was monitored by HPLC at 214 nm. Each experiment was performed in triplicate.

In data set [3] the target is α-Chymotrypsin (Bos taurus, UniProt P00766). Put plainly: Proteolytic stability in α-chymotrypsin solution. The data set is classed as in vitro ADME. How it is done:
as §1

Positions of bridges follow the written chain, without caps; N, C: chain ends. Non-standard residues stand in square brackets, D forms with d. Residues, ends and D or L forms follow the SMILES beside them. S5 = C=CCCC[C@](C)(N)C(=O)O

As for `CC[C@H](C)[C@H](NC(C)=O)C(=O)N[C@@H](CC(N)=O)C(=O)N[C@@H](CC(C)C)C(=O)N[C@@H](CCCCN)C(=O)N[C@@H](C)C(=O)N[C@@H](CC(C)C)C(=O)N[C@@H](C)C(=O)N[C@@H](C)C(=O)N[C@@]1(C)CCCC=CCCC[C@@](C)(C(=O)N[C@@H](CC(C)C)C(N)=O)NC(=O)[C@H](CCCCN)NC(=O)[C@H](CCCCN)NC(=O)[C@H](C)NC1=O` [MP9] (Ac-INLKALAA[S5]AKK[S5]L-NH2; staple 9-13), in data set [1], the “RBC hemolytic activity (in words)” value is on record as “lowest level of RBC hemolysis”. The amount remaining at 1 h, 0.1 mM in data set [2] was greater than 87%. In data set [3] (0.5 ng/μL α-chymotrypsin, pH 7.4, 37 ℃, read-out: T1/2 in α-chymotrypsin solution (converted)), the half-life is 5.27 h. The “fold increase in half-life (T1/2) versus MP” value in data set [3] (α-chymotrypsin) is given as 12.55 fold.
